Measured values: PubChem BioAssay AID1963864 (Molecular Pharmacology Branch, DTP, NCI, 2024)
pIC50: −log10 of the molar value.

Test system: KRAS PDC multicell spheroid viability
Assay: Anticancer human tumor 521955-158-R6-J3-PDC patient-derived pancreatic carcinoma cell line growth inhibition [KRAS2]
Settings: for pIC50: curve of first compound; for viability, T/C: stronger effect = lower value
Outline: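 KRAS-mutant tumor cells were grown as spheroids with HUVEC endothelial cells and human MSCs as stroma. Targeted agents were tested alone and with KRAS pathway inhibitors. Doses started at or near clinical Cmax, or 10 microM, descending half-log.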

[1] = second compound 0.0316 µM, first compound 0.0316 µM
[2] = second compound 0.0316 µM, first compound 0.1 µM
[3] = second compound 0.0316 µM, first compound 0.316 µM
[4] = second compound 0.0316 µM, first compound 1 µM
[5] = second compound 0.0316 µM, first compound 3.16 µM
[6] = second compound 0.0316 µM, first compound 10 µM
[7] = second compound 0.1 µM, first compound 0.0316 µM
[8] = second compound 0.1 µM, first compound 0.1 µM
[9] = second compound 0.1 µM, first compound 0.316 µM
[10] = second compound 0.1 µM, first compound 1 µM
[11] = second compound 0.1 µM, first compound 3.16 µM
[12] = second compound 0.1 µM, first compound 10 µM
[13] = second compound 0.316 µM, first compound 0.0316 µM
[14] = second compound 0.316 µM, first compound 0.1 µM
[15] = second compound 0.316 µM, first compound 0.316 µM
[16] = second compound 0.316 µM, first compound 1 µM
[17] = second compound 0.316 µM, first compound 3.16 µM
[18] = second compound 0.316 µM, first compound 10 µM
[19] = second compound 1 µM, first compound 0.0316 µM
[20] = second compound 1 µM, first compound 0.1 µM
[21] = second compound 1 µM, first compound 0.316 µM
[22] = second compound 1 µM, first compound 1 µM
[23] = second compound 1 µM, first compound 3.16 µM
[24] = second compound 1 µM, first compound 10 µM
[25] = second compound 3.16 µM, first compound 0.0316 µM
[26] = second compound 3.16 µM, first compound 0.1 µM
[27] = second compound 3.16 µM, first compound 0.316 µM
[28] = second compound 3.16 µM, first compound 1 µM
[29] = second compound 3.16 µM, first compound 3.16 µM
[30] = second compound 3.16 µM, first compound 10 µM
[31] = second compound 0.0316 µM, first compound 0.00316 µM
[32] = second compound 0.0316 µM, first compound 0.01 µM
[33] = second compound 0.1 µM, first compound 0.00316 µM
[34] = second compound 0.1 µM, first compound 0.01 µM
[35] = second compound 0.316 µM, first compound 0.00316 µM
[36] = second compound 0.316 µM, first compound 0.01 µM
[37] = second compound 1 µM, first compound 0.00316 µM
[38] = second compound 1 µM, first compound 0.01 µM
[39] = second compound 3.16 µM, first compound 0.00316 µM
[40] = second compound 3.16 µM, first compound 0.01 µM
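Also: drug exposure lasted seven days.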
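For viability, T/C in this document: 100% = DMSO vehicle wells and lower means fewer viable cells.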

SMILES | pIC50 (second compound 0.0316 µM) | pIC50 (second compound 0.1 µM) | pIC50 (second compound 0.316 µM) | pIC50 (second compound 1 µM) | pIC50 (second compound 3.16 µM) | viability, T/C [1] [%] | viability, T/C [2] [%] | viability, T/C [3] [%] | viability, T/C [4] [%] | viability, T/C [7] [%] | viability, T/C [8] [%] | viability, T/C [9] [%] | viability, T/C [10] [%] | viability, T/C [13] [%] | viability, T/C [14] [%] | viability, T/C [15] [%] | viability, T/C [19] [%] | viability, T/C [20] [%] | viability, T/C [25] [%] | viability, T/C [26] [%] | also measured
CC(C)NCC(C(=O)N1CCN(c2ncnc3c2C(C)CC3O)CC1)c1ccc(Cl)cc1 (stereo not given) + C=CC(=O)N1CCN(c2nc(OCC3CCCN3C)nc3c2CCN(c2cccc4cccc(C)c24)C3)CC1CC#N | < 5.00 | < 5.00 | < 5.00 | < 5.00 | > 7.50 | 80.4 | 86.4 | 84.4 | 75.9 | 76.8 | 87.5 | 74.4 | 66.2 | 79.1 | 74.2 | 74.3 | 63.3 | 59 | 43.9 | 38 | viability, T/C [5]: 76.3%; viability, T/C [6]: 65%; viability, T/C [11]: 74.3%; viability, T/C [12]: 57.4%; viability, T/C [16]: 66.7%; viability, T/C [17]: 74.3%; viability, T/C [18]: 65.1%; viability, T/C [21]: 68.5%; viability, T/C [22]: 58.9%; viability, T/C [23]: 58.3%; viability, T/C [24]: 57.4%; viability, T/C [27]: 35.2%; viability, T/C [28]: 29.1%; viability, T/C [29]: 25.1%; viability, T/C [30]: 15.8%
CCN1CCN(Cc2ccc(Nc3ncc(F)c(-c4cc(F)c5nc(C)n(C(C)C)c5c4)n3)nc2)CC1 + C=CC(=O)N1CCN(c2nc(OCC3CCCN3C)nc3c2CCN(c2cccc4cccc(C)c24)C3)CC1CC#N | < 6.00 | < 6.00 | < 6.00 | < 6.00 | > 8.50 | 76 | 76.1 | 82.8 | 95.1 | 81.4 | 85.7 | 82.9 | 98.8 | 76.5 | 77.2 | 87.8 | 71.3 | 65.2 | 25.9 | 17.1 | viability, T/C [31]: 94.4%; viability, T/C [32]: 81.9%; viability, T/C [33]: 88.3%; viability, T/C [34]: 93.6%; viability, T/C [35]: 86.1%; viability, T/C [36]: 86.4%; viability, T/C [16]: 91.9%; viability, T/C [37]: 72%; viability, T/C [38]: 84.5%; viability, T/C [21]: 79.9%; viability, T/C [22]: 103%; viability, T/C [39]: 24.9%; viability, T/C [40]: 26.4%; viability, T/C [27]: 15.3%; viability, T/C [28]: 4.09%
CCNC(=O)CC1N=C(c2ccc(Cl)cc2)c2cc(OC)ccc2-n2c(C)nnc21 (stereo not given) + C=CC(=O)N1CCN(c2nc(OCC3CCCN3C)nc3c2CCN(c2cccc4cccc(C)c24)C3)CC1CC#N | < 5.00 | < 5.00 | < 5.00 | < 5.00 | 7.00 | 106 | 87.1 | 64.3 | 74.9 | 88.6 | 102 | 78.4 | 69.3 | 101 | 93.2 | 76 | 86.6 | 83.9 | 47 | 53.1 | viability, T/C [5]: 83.2%; viability, T/C [6]: 76.6%; viability, T/C [11]: 73.1%; viability, T/C [12]: 75.9%; viability, T/C [16]: 74.5%; viability, T/C [17]: 77.1%; viability, T/C [18]: 69.2%; viability, T/C [21]: 77.8%; viability, T/C [22]: 62.2%; viability, T/C [23]: 69.6%; viability, T/C [24]: 81%; viability, T/C [27]: 30.5%; viability, T/C [28]: 1.65%; viability, T/C [29]: 31%; viability, T/C [30]: 35.1%
Cn1ncnc1[C@H]1c2n[nH]c(=O)c3cc(F)cc(c23)N[C@@H]1c1ccc(F)cc1 + C=CC(=O)N1CCN(c2nc(OCC3CCCN3C)nc3c2CCN(c2cccc4cccc(C)c24)C3)CC1CC#N | < 7.00 | < 7.00 | < 7.00 | < 7.00 | > 9.50 | 97 | 90.8 |  |  | 98.9 | 89.4 |  |  | 92.2 | 91 |  | 78.6 | 85.4 | 52.6 | 53.6 | viability, T/C (second compound 0.0316 µM, first compound 0.000316 µM): 100%; viability, T/C (second compound 0.0316 µM, first compound 0.001 µM): 100%; viability, T/C [31]: 98.1%; viability, T/C [32]: 105%; viability, T/C (second compound 0.1 µM, first compound 0.000316 µM): 94.2%; viability, T/C (second compound 0.1 µM, first compound 0.001 µM): 94.5%; viability, T/C [33]: 104%; viability, T/C [34]: 91.9%; viability, T/C (second compound 0.316 µM, first compound 0.000316 µM): 94.1%; viability, T/C (second compound 0.316 µM, first compound 0.001 µM): 89.9%; viability, T/C [35]: 95.1%; viability, T/C [36]: 88.4%; viability, T/C (second compound 1 µM, first compound 0.000316 µM): 83.8%; viability, T/C (second compound 1 µM, first compound 0.001 µM): 78.6%; viability, T/C [37]: 88.3%; viability, T/C [38]: 91.7%; viability, T/C (second compound 3.16 µM, first compound 0.000316 µM): 50.4%; viability, T/C (second compound 3.16 µM, first compound 0.001 µM): 43.3%; viability, T/C [39]: 53.2%; viability, T/C [40]: 54.5%
